Molecules are shown by their SMILES.

Assay [1] has as its target T1, human thyroid receptor alpha ligand-binding domain (LBD) (Homo sapiens, UniProt P10827).
T1 construct: purchased Invitrogen
Kind of assay: TR-FRET thyroid receptor alpha coactivator assay (THR biochemical assay, Assay 1). To be noted: for EC50: Table 4, THR-alpha, read-out: Activity category Assay 1 (EC50, THR-alpha agonist activity); for Emax: Table 5, THRα, read-out: Activity category Assay 1 THRα (Emax). In a few lines:
(§1)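 GST-tagged human TRβ or TRα LBD, 1 nM final (stated for β), with fluorescein-SRC2-2 coactivator peptide (200 nM) and Tb-anti-GST antibody (2 nM). Agonists serially diluted, 1% DMSO final. 1 h incubation at rt in the dark; TR-FRET read as rise in fluorescein and drop in terbium emission.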

Assay [2] addresses T2, human thyroid receptor beta ligand-binding domain (LBD) (Homo sapiens, UniProt P10828).
T2 construct: purchased Invitrogen
T2 sequence (P10828 217-461 limits assumed): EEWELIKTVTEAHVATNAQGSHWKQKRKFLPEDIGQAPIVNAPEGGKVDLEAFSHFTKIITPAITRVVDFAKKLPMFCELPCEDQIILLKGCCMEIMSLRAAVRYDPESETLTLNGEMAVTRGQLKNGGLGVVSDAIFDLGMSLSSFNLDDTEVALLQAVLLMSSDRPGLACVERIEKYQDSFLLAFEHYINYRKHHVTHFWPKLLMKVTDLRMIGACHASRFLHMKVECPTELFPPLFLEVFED
In words: TR-FRET thyroid receptor beta coactivator assay (THR biochemical assay, Assay 1). To be noted: for EC50: THR-beta, TR-FRET coactivator assay, read-out: Activity category Assay 1 (EC50, THR-beta agonist); for Emax: Table 5, Assay 1, THRβ, read-out: Activity category Assay 1 THRβ (Emax). In a few lines:
as §1

The target of the next assay is T3, THR beta (Homo sapiens, UniProt P10828).
T3 construct: expressed in transfected cells; host or cells: HEK293T (ATCC CRL-3216)
T3 sequence (P10828 1-461): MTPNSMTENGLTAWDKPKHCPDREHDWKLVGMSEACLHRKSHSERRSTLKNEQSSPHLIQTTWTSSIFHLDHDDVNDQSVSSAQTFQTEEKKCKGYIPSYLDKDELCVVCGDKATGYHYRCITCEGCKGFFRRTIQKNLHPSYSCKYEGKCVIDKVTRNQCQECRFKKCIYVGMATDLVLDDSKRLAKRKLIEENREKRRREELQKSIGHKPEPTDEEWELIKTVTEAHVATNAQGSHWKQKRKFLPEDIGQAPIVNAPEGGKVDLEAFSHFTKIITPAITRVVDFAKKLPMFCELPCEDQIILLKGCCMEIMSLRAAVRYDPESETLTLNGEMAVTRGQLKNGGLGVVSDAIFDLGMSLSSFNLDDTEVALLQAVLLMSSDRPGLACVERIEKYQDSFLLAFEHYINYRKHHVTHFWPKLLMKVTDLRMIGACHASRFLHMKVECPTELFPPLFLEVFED
T3 sequence (P19793 1-462 partner): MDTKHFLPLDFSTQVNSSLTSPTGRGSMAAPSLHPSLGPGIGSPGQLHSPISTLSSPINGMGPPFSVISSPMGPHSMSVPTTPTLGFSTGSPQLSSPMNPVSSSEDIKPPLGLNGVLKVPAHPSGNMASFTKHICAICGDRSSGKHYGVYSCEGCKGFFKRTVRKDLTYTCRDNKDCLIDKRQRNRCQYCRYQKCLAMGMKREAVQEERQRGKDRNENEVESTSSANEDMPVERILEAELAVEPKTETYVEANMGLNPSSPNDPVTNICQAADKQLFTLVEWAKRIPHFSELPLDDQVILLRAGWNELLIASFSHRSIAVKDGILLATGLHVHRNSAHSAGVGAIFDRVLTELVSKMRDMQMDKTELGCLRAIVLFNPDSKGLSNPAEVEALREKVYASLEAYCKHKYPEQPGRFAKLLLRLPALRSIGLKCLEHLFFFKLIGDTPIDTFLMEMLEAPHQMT
In words: HEK293T THR beta/RXR luciferase reporter assay (Assay 2). The class given is cell-based. To be noted: for Emax: HEK-293T, Table 5, Assay 2, THRβ, read-out: Activity category Assay 2 THRβ (Emax); for EC50: THR-beta, HEK293T reporter assay, read-out: Activity category Assay 2 (EC50, THR-beta agonist). The essentials:
(§2)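 HEK293T cells transiently transfected with TRE-luciferase reporter, RXR, and THR alpha or THR beta plasmid; ten five-fold compound dilutions from DMSO added for 18-24 h. One-Glo luminescence read; percent agonism normalized between negative and positive controls.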

A further assay deals with T4, THR alpha (Homo sapiens, UniProt P10827).
T4 construct: expressed in transfected cells; host or cells: HEK293T (ATCC CRL-3216)
T4 sequence (P10827 1-410 isoform P10827-2): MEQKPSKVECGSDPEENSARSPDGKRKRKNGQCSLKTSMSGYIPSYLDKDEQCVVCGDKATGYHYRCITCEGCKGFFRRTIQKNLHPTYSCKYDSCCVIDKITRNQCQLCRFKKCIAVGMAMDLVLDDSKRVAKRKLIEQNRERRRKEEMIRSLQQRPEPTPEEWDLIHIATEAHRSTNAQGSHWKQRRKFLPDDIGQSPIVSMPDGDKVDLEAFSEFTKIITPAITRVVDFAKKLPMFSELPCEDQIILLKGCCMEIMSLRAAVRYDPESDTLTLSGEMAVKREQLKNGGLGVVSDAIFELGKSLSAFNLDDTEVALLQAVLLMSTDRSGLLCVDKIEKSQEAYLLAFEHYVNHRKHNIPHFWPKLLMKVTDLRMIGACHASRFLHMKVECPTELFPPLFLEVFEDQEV
T4 sequence (P19793 1-462 partner): T3 sequence (P19793 1-462 partner)
Kind of assay: HEK293T THR alpha/RXR luciferase reporter assay (Assay 2). The class given is cell-based. To be noted: Assay 2; for Emax: HEK-293T, Table 5, THRα, read-out: Activity category Assay 2 THRα (Emax); for EC50: Table 4, THR-alpha, read-out: Activity category Assay 2 (EC50, THR-alpha agonist activity). The essentials:
as §2

Turning to `CC(C)c1n[nH]c2nnc(Oc3c(Cl)cc(-n4nc(C#N)c(=O)[nH]c4=O)cc3Cl)cc12` [Compound 75A, 2-(3,5-Dichloro-4-((3-isopropyl-1H-pyrazolo[3,4-c]pyridazin-5-yl)oxy)phenyl)-3,5-dioxo-2,3,4,5-tetrahydro-1,2,4-triazine-6-carbonitrile], the figures for the EC50 (in assay [1]; in assay [2]; at THR alpha) were 50 to 250 nM, below 50 nM and above 10000 nM, respectively. Further, the maximal effect (Emax) in assay [1] was below 50%; in assay [2] it was 50 to 75%; at THR beta it was 50 to 75%; at THR alpha, below 50%.

On to `Nc1nn(-c2cc(Cl)c(Oc3ccc4c(c3)C3(CCCC3)C(=O)N4)c(Cl)c2)c(=O)[nH]c1=O` [Compound 83], for which the EC50 (in assay [1]; in assay [2]; on THR beta; on THR alpha) was below 50 nM in each case. The Emax was 50 to 75% in assay [1], 50 to 75% in assay [2], 50 to 75% on THR beta and above 75% at THR alpha.

As for `CC1(C)CC(c2cc(Oc3c(Cl)cc(-n4nc(N)c(=O)[nH]c4=O)cc3Cl)n[nH]c2=O)C1` [Compound 89, 6-Amino-2-(3,5-dichloro-4-((5-(3,3-dimethylcyclobutyl)-6-oxo-1,6-dihydropyridazin-3-yl)oxy)phenyl)-1,2,4-triazine-3,5(2H,4H)-dione], the EC50 in assay [1] was 250 to 1000 nM; in assay [2], below 50 nM; at THR alpha, 1000 to 10000 nM. In addition, the Emax is below 50% in assay [1], below 50% in assay [2], 50 to 75% on THR beta and below 50% on THR alpha.

In the case of `Cc1cc(-n2nc(C#N)c(=O)[nH]c2=O)cc(C)c1Cc1ccc2[nH]c(=O)cc(C(C)C)c2c1` [Compound 90, 2-(4-((4-Isopropyl-2-oxo-1,2-dihydroquinolin-6-yl)methyl)-3,5-dimethylphenyl)-3,5-dioxo-2,3,4,5-tetrahydro-1,2,4-triazine-6-carbonitrile], the EC50 in assay [1] is 50 to 250 nM; in assay [2], below 50 nM; at THR beta it was above 10000 nM; on THR alpha, above 10000 nM. Besides, the Emax in assay [1] was below 50%; in assay [2], below 50%; on THR beta it was 50 to 75%; at THR alpha, below 50%.

As to `Nc1nn(-c2cc(Cl)c(Oc3cc(C4CC5(CC5)C4)c(=O)[nH]n3)c(Cl)c2)c(=O)[nH]c1=O` [Compound 93], the 50% effective concentration (EC50) was 250 to 1000 nM in assay [1], 50 to 250 nM in assay [2], 250 to 1000 nM on THR beta and 1000 to 10000 nM on THR alpha. Further, the Emax in assay [1] was below 50%; in assay [2], below 50%; at THR beta, 50 to 75%; on THR alpha, below 50%.

Take `Nc1nn(-c2cc(Cl)c(Oc3cc(C4CC5(CCC5)C4)c(=O)[nH]n3)c(Cl)c2)c(=O)[nH]c1=O` [Compound 94]: the EC50 in assay [1] was in the range of 250 to 1000 nM; in assay [2] it was 50 to 250 nM; at THR beta it was 50 to 250 nM; on THR alpha, 1000 to 10000 nM. In addition, the Emax was below 50% in assay [1], below 50% in assay [2], 50 to 75% at THR beta and below 50% at THR alpha.

Take `Nc1nn(-c2cc(Cl)c(Oc3cc(C45CCC(C4)C5)c(=O)[nH]n3)c(Cl)c2)c(=O)[nH]c1=O` [Compound 101]: the EC50 in assay [1] fell in the range of 250 to 1000 nM; in assay [2], 50 to 250 nM; on THR beta, 50 to 250 nM; on THR alpha it was 50 to 250 nM. The maximum response (Emax) in assay [1] was below 50%; in assay [2], below 50%; on THR beta it was 50 to 75%; on THR alpha, below 50%.

Regarding `Cc1ccc(-c2cc(Oc3c(Cl)cc(-n4nc(N)c(=O)[nH]c4=O)cc3Cl)n[nH]c2=O)cc1C` [Compound 112], the EC50 in assay [1] was 250 to 1000 nM; in assay [2] it was 50 to 250 nM; at THR beta, 50 to 250 nM; at THR alpha it was 1000 to 10000 nM. Moreover, the Emax (in assay [1]; in assay [2]; at THR beta; at THR alpha) was below 50% in each case.

Turning to `Nc1nn(-c2cc(Cl)c(Oc3cc(-c4ccc5c(c4)CCCO5)c(=O)[nH]n3)c(Cl)c2)c(=O)[nH]c1=O` [Compound 114], the EC50 in assay [1] is above 25000 nM; in assay [2], 50 to 250 nM; at THR beta it was 250 to 1000 nM; at THR alpha, above 10000 nM. In addition, the Emax (in assay [1]; in assay [2]; on THR beta; on THR alpha) was below 50% in each case.

For `Nc1nn(-c2cc(Cl)c(Oc3n[nH]c(=O)cc3-c3ccc4c(c3)CCCO4)c(Cl)c2)c(=O)[nH]c1=O` [Compound 115], the EC50 in assay [1] was above 25000 nM; in assay [2] it was 50 to 250 nM; at THR beta, 250 to 1000 nM; on THR alpha, above 10000 nM. Also, the maximal response (Emax) (in assay [1]; in assay [2]; on THR beta; at THR alpha) was below 50% in each case.

As for `CC(C)Nc1n[nH]c2ccc(Oc3c(Cl)cc(-n4nc(C#N)c(=O)[nH]c4=O)cc3Cl)cc12` [Compound 145, 2-(3,5-dichloro-4-((3-(isopropylamino)-1H-indazol-5-yl)oxy)phenyl)-3,5-dioxo-2,3,4,5-tetrahydro-1,2,4-triazine-6-carbonitrile], the EC50 in assay [1] was below 50 nM; in assay [2], below 50 nM; at THR beta it was 1000 to 10000 nM; on THR alpha, 1000 to 10000 nM. Further, the maximal effect (Emax) in assay [1] was 50 to 75%; in assay [2] it was below 50%; at THR beta, 50 to 75%; on THR alpha it was 50 to 75%.

For the compound `CC(C)c1cc(=O)[nH]c2ccc(Oc3c(Cl)cc(-n4nc(N)c(=O)[nH]c4=O)cc3Cl)cc12` [Compound 146, 6-amino-2-[3,5-dichloro-4-[(4-isopropyl-2-oxo-1H-quinolin-6-yl)oxy]phenyl]-1,2,4-triazine-3,5-dione], the EC50 was 50 to 250 nM in assay [1], below 50 nM in assay [2], below 50 nM on THR beta and 50 to 250 nM on THR alpha. Moreover, the maximal effect (Emax) in assay [1] was below 50%; in assay [2], below 50%; on THR beta, 50 to 75%; at THR alpha, below 50%.

On to `Cc1cc(-n2nc(C#N)c(=O)[nH]c2=O)cc(C)c1Cc1ccc2c(c1)C1(CC1)C(=O)N2` [Compound 148, 2-(3,5-dimethyl-4-((2′-oxospiro[cyclopropane-1,3′-indolin]-5′-yl)methyl)phenyl)-3,5-dioxo-2,3,4,5-tetrahydro-1,2,4-triazine-6-carbonitrile], for which the EC50 in assay [1] is below 50 nM; in assay [2] it was below 50 nM; on THR beta it was 1000 to 10000 nM; on THR alpha it was 1000 to 10000 nM. Also, the Emax in assay [1] was 50 to 75%; in assay [2], below 50%; on THR beta, 50 to 75%; on THR alpha, below 50%.

For the origin of these results see patent US12180192B2, “Modulators of THR-β and methods of use thereof” (ALIGOS THERAPEUTICS, INC., priority 2019, dated 2024).
